# Laboratory results from patent US20070099259A1, “ELECTROCHEMICAL ASSAY FOR THE IDENTIFICATION OF MICROORGANISMS” (RAPID LABORATORY MICROSYSTEMS INC., priority 2003, published 2007).
# Like-named read-outs stand apart in the source and are kept apart here.
# Columns and labels:
# Experiment in all cases: Relative respiratory activity with 22 effectors (Example 3)
# E. aerogenes ATCC13048e = assay type: cell-based, Enterobacter aerogenes; conditions: for activity at 20000 µM: effector 20 mM; for activity at 10000 µM: read-out: relative %-respiratory activity
# From the text: (§1) In this example, each microorganism is subjected to 22 different effector compounds in addition to control measurements. […] For each microorganism, duplicate measurements were made of 22 different effector compounds. In addition, duplicate measurements were made a control test containing no effector compound. One additional measurement was made of a control solution containing the microorganism with ferricyanide but without effector or DCIP.
# (§2) In this example, each normalized data set containing duplicate measurements for each of 22 effector compounds is referenced to the duplicate internal controls to allow batch-to-batch comparison. The obtained signals of charge per unit electrode area for the duplicate control measurements are averaged and set at 100% respiratory cycle activity. […] The data set used to generate pattern recognition plots consists of 5 replicate batches (each batch containing duplicate measurements for each of 22 effector compounds) for each cell culture (10 strains). This is used to generate a 50 (columns)×22 (rows) matrix. The matrix is imported into MATLAB (Version 6.0). Factor analysis is performed using the MATLAB Chemometric Toolbox (Version 2.3) and involves the generation of reduced eigenvectors to determine the optimal number of factors, examination of the resulting residuals plots for randomness, and the generation of scores for the first four principle components.
# P. vulgaris ATCC6380 = assay type: cell-based, Proteus vulgaris; conditions: for activity at 20000 µM: effector 20 mM
# From the text: as §1, §2
# E. coli Neotype = assay type: cell-based; conditions: for activity at 20000 µM: effector 20 mM; for activity at 10000 µM: read-out: relative %-respiratory activity
# From the text: as §1, §2
# E. coli HB101 = assay type: cell-based; conditions: for activity at 20000 µM: effector 20 mM
# From the text: as §1, §2
# E. coli JM105 = assay type: cell-based; conditions: for activity at 20000 µM: effector 20 mM
# From the text: as §1, §2
# S. cerevisiae = assay type: cell-based, Saccharomyces cerevisiae; conditions: for activity at 20000 µM: effector 20 mM; for activity at 10000 µM: read-out: relative %-respiratory activity
# From the text: as §1, §2
# P. aeruginosa = assay type: cell-based, Pseudomonas aeruginosa; conditions: for activity at 20000 µM: effector 20 mM; for activity at 10000 µM: read-out: relative %-respiratory activity
# From the text: as §1, §2
# E. faecalis = assay type: cell-based, Enterococcus faecalis; conditions: for activity at 20000 µM: effector 20 mM; for activity at 10000 µM: read-out: relative %-respiratory activity
# From the text: as §1, §2
# S. aureus ATCC6538P = assay type: cell-based, Staphylococcus aureus; conditions: for activity at 20000 µM: effector 20 mM; for activity at 10000 µM: read-out: relative %-respiratory activity
# From the text: as §1, §2
# E. coli B = assay type: cell-based; conditions: 5 μM DCIP, no effector = 100%, n = 10; for activity at 20000 µM: effector 20 mM; for activity at 10000 µM: read-out: relative %-respiratory activity
# From the text: as §1, §2
# [1] = effector 10 mM, 5 μM DCIP, no effector = 100%, n = 26
# [2] = effector 10 mM, 5 μM DCIP, no effector = 100%, n = 20
# [3] = effector 10 mM, 5 μM DCIP, no effector = 100%, n = 18
# [4] = effector 10 mM, 5 μM DCIP, no effector = 100%, n = 10
# [5] = Klebsiella aerogenes, ATCC13048E, 5 μM DCIP, no effector = 100%, n = 26
# [6] = Proteus vulgaris, ATCC6380, 5 μM DCIP, no effector = 100%, n = 20
# [7] = Escherichia coli, 5 μM DCIP, no effector = 100%, n = 26
# [8] = Escherichia coli, HB101, 5 μM DCIP, no effector = 100%, n = 18
# [9] = Escherichia coli, JM105, 5 μM DCIP, no effector = 100%, n = 10
# [10] = Saccharomyces cerevisiae, 5 μM DCIP, no effector = 100%, n = 10
# [11] = Pseudomonas aeruginosa, 5 μM DCIP, no effector = 100%, n = 18
# [12] = Enterococcus faecalis, 5 μM DCIP, no effector = 100%, n = 20
# [13] = Staphylococcus aureus, ATCC6538P, 5 μM DCIP, no effector = 100%, n = 20
# [14] = Klebsiella aerogenes, ATCC13048E, effector 10 mM, 5 μM DCIP, no effector = 100%, n = 26
# [15] = Proteus vulgaris, ATCC6380, effector 10 mM, 5 μM DCIP, no effector = 100%, n = 20, read-out: relative %-respiratory activity
# [16] = Escherichia coli, effector 10 mM
# [17] = Escherichia coli, effector 10 mM, 5 μM DCIP, no effector = 100%, n = 26
# [18] = Escherichia coli, HB101, effector 10 mM, 5 μM DCIP, no effector = 100%, n = 18, read-out: relative %-respiratory activity
# [19] = Escherichia coli, JM105, effector 10 mM, 5 μM DCIP, no effector = 100%, n = 10, read-out: relative %-respiratory activity
# [20] = Saccharomyces cerevisiae, effector 10 mM, 5 μM DCIP, no effector = 100%, n = 10
# [21] = Pseudomonas aeruginosa, effector 10 mM, 5 μM DCIP, no effector = 100%, n = 18
# [22] = Enterococcus faecalis, effector 10 mM, 5 μM DCIP, no effector = 100%, n = 20
# [23] = Staphylococcus aureus, ATCC6538P, effector 10 mM, 5 μM DCIP, no effector = 100%, n = 20
SMILES,activity at 20000 µM (E. aerogenes ATCC13048e; [5]),activity at 20000 µM (P. vulgaris ATCC6380; [6]),activity at 20000 µM (E. coli B; Escherichia coli),activity at 20000 µM (E. coli Neotype; [7]),activity at 20000 µM (E. coli HB101; [8]),activity at 20000 µM (E. coli JM105; [9]),activity at 20000 µM (S. cerevisiae; [10]),activity at 20000 µM (P. aeruginosa; [11]),activity at 20000 µM (E. faecalis; [12]),activity at 20000 µM (S. aureus ATCC6538P; [13]),also measured
O=P(O)(O)OC(CO)CO [Beta-glycerophosphate],–,–,–,–,–,–,–,–,–,–,relative %-respiratory activity (E. aerogenes ATCC13048e; [1]): 131%; relative %-respiratory activity (P. vulgaris ATCC6380; [2]): 136%; relative %-respiratory activity (E. coli Neotype; [1]): 108%; relative %-respiratory activity (E. coli HB101; [3]): 110%; relative %-respiratory activity (E. coli JM105; [4]): 121%; relative %-respiratory activity (S. cerevisiae; [4]): 105%; relative %-respiratory activity (P. aeruginosa; [3]): 114%; relative %-respiratory activity (E. faecalis; [2]): 120%; relative %-respiratory activity (S. aureus ATCC6538P; [2]): 114%
OC[C@H]1O[C@@](CO)(O[C@H]2O[C@H](CO)[C@@H](O)[C@H](O)[C@H]2O)[C@@H](O)[C@@H]1O [Sucrose],188%,164%,124%,122%,110%,121%,161%,117%,465%,290%,–
O=C[C@H](O)[C@@H](O)[C@H](O)CO [D-xylose],149%,178%,102%,110%,110%,134%,116%,113%,128%,128%,–
O=C[C@H](O)[C@@H](O)[C@@H](O)[C@H](O)CO [D-galactose],334%,341%,165%,155%,153%,173%,143%,130%,200%,195%,–
C[C@H](O)[C@H](O)[C@@H](O)[C@@H](O)C=O [L-rhamnose],110%,145%,119%,105%,103%,116%,124%,94%,105%,101%,–
O=C(O)CCC(=O)C(=O)O [Alpha-ketoglutarate],–,–,–,–,–,–,–,–,–,–,relative %-respiratory activity (E. aerogenes ATCC13048e; [1]): 102%; relative %-respiratory activity (P. vulgaris ATCC6380; [2]): 201%; relative %-respiratory activity (E. coli B; effector 10 mM): 130%; relative %-respiratory activity (E. coli Neotype; [1]): 100%; relative %-respiratory activity (E. coli HB101; [3]): 116%; relative %-respiratory activity (E. coli JM105; [4]): 142%; relative %-respiratory activity (S. cerevisiae; [4]): 124%; relative %-respiratory activity (P. aeruginosa; [3]): 97%; relative %-respiratory activity (E. faecalis; [2]): 109%; relative %-respiratory activity (S. aureus ATCC6538P; [2]): 115%
NCCC[C@H](N)C(=O)O [L-ornithine],–,–,–,–,–,–,–,–,–,–,"activity at 5000 µM (E. aerogenes ATCC13048e; Klebsiella aerogenes, ATCC13048E, effector 5 mM, 5 μM DCIP, no effector = 100%, n = 26): 142%; activity at 5000 µM (P. vulgaris ATCC6380; Proteus vulgaris, ATCC6380, effector 5 mM, 5 μM DCIP, no effector = 100%, n = 20): 151%; activity at 5000 µM (E. coli B; Escherichia coli, effector 5 mM): 135%; activity at 5000 µM (E. coli Neotype; Escherichia coli, effector 5 mM, 5 μM DCIP, no effector = 100%, n = 26): 134%; activity at 5000 µM (E. coli HB101; Escherichia coli, HB101, effector 5 mM, 5 μM DCIP, no effector = 100%, n = 18): 114%; activity at 5000 µM (E. coli JM105; Escherichia coli, JM105, effector 5 mM, 5 μM DCIP, no effector = 100%, n = 10): 165%; activity at 5000 µM (S. cerevisiae; Saccharomyces cerevisiae, effector 5 mM, 5 μM DCIP, no effector = 100%, n = 10): 137%; activity at 5000 µM (P. aeruginosa; Pseudomonas aeruginosa, effector 5 mM, 5 μM DCIP, no effector = 100%, n = 18): 148%; activity at 5000 µM (E. faecalis; Enterococcus faecalis, effector 5 mM, 5 μM DCIP, no effector = 100%, n = 20): 138%; activity at 5000 µM (S. aureus ATCC6538P; Staphylococcus aureus, ATCC6538P, effector 5 mM, 5 μM DCIP, no effector = 100%, n = 20): 154%"
O=C(O)CC(O)(CC(=O)O)C(=O)O [Citric acid],163%,142%,161%,158%,137%,113%,103%,87%,117%,83%,–
OC[C@H]1O[C@@H]2O[C@H]3[C@H](O)[C@@H](O)[C@@H](O[C@H]4[C@H](O)[C@@H](O)[C@@H](O[C@H]5[C@H](O)[C@@H](O)[C@@H](O[C@H]6[C@H](O)[C@@H](O)[C@@H](O[C@H]7[C@H](O)[C@@H](O)[C@@H](O[C@H]8[C@H](O)[C@@H](O)[C@@H](O[C@H]1[C@H](O)[C@H]2O)O[C@@H]8CO)O[C@@H]7CO)O[C@@H]6CO)O[C@@H]5CO)O[C@@H]4CO)O[C@@H]3CO [Beta-cyclodextrin],–,–,–,–,–,–,–,–,–,–,activity at 10000 µM (E. aerogenes ATCC13048e; [14]): 110%; activity at 10000 µM (P. vulgaris ATCC6380; [15]): 151%; activity at 10000 µM (E. coli B; [16]): 125%; activity at 10000 µM (E. coli Neotype; [17]): 81%; activity at 10000 µM (E. coli HB101; [18]): 132%; activity at 10000 µM (E. coli JM105; [19]): 187%; activity at 10000 µM (S. cerevisiae; [20]): 112%; activity at 10000 µM (P. aeruginosa; [21]): 90%; activity at 10000 µM (E. faecalis; [22]): 155%; activity at 10000 µM (S. aureus ATCC6538P; [23]): 98%
N[C@@H](Cc1c[nH]c2ccccc12)C(=O)O [L-tryptophan],–,–,–,–,–,–,–,–,–,–,"activity at 10000 µM (E. aerogenes ATCC13048e; Klebsiella aerogenes, ATCC13048E): 126%; activity at 10000 µM (P. vulgaris ATCC6380; Proteus vulgaris, ATCC6380, read-out: relative %-respiratory activity): 521%; activity at 10000 µM (E. coli B; [16]): 98%; activity at 10000 µM (E. coli Neotype; Escherichia coli): 93%; activity at 10000 µM (E. coli HB101; Escherichia coli, HB101, read-out: relative %-respiratory activity): 129%; activity at 10000 µM (E. coli JM105; Escherichia coli, JM105, read-out: relative %-respiratory activity): 133%; activity at 10000 µM (S. cerevisiae; Saccharomyces cerevisiae): 188%; activity at 10000 µM (P. aeruginosa; Pseudomonas aeruginosa): 170%; activity at 10000 µM (E. faecalis; Enterococcus faecalis): 232%; activity at 10000 µM (S. aureus ATCC6538P; Staphylococcus aureus, ATCC6538P): 139%"
O=C[C@@H](O)[C@H](O)[C@H](O)CO [D-arabinose],106%,150%,118%,103%,107%,137%,143%,113%,139%,115%,–
O=C(O)CC(=O)O [Malonic acid],–,–,–,–,–,–,–,–,–,–,activity at 10000 µM (E. aerogenes ATCC13048e; [14]): 156%; activity at 10000 µM (P. vulgaris ATCC6380; [15]): 125%; activity at 10000 µM (E. coli Neotype; [17]): 141%; activity at 10000 µM (E. coli HB101; [18]): 124%; activity at 10000 µM (E. coli JM105; [19]): 160%; activity at 10000 µM (S. cerevisiae; [20]): 110%; activity at 10000 µM (P. aeruginosa; [21]): 125%; activity at 10000 µM (E. faecalis; [22]): 146%; activity at 10000 µM (S. aureus ATCC6538P; [23]): 117%
O=C(CO)[C@@H](O)[C@H](O)[C@H](O)CO [D-fructose],275%,183%,147%,125%,202%,202%,152%,136%,463%,289%,–
